The source of these data is patent publication EP0121012A1, “Oral compositions” (UNILEVER PLC, priority 1983, dated 1984).

For data set [1] the following is noted: normal temperature and pressure.
A further data set relates to S.salivarius SS4. Description: Inhibition of bacterial growth (24 h, optical density). It counts as cell-based, Streptococcus salivarius. To be noted: for IC50: 50% inhibition in growth, 24 hours, means of triplicate experiments, read-out: ID/50 (the source's name); for ID/50: recalculated as ppm F, 1440 min.
Another data set concerns S.salivarius H-257. Described as above. It counts as cell-based, Streptococcus salivarius. To be noted: for IC50: 50% inhibition in growth, 24 hours, means of triplicate experiments, read-out: ID/50 (the source's name); for ID/50: recalculated as ppm F, 1440 min.
The subject of a further data set is S.sanguis 10557. The description is as above. It counts as cell-based, Streptococcus sanguis. To be noted: for IC50: 50% inhibition in growth, 24 hours, means of triplicate experiments, read-out: ID/50 (the source's name); for ID/50: recalculated as ppm F, 1440 min.
The test system of a further data set is S.mutans OMZ-176. The data set is described as above. It counts as cell-based, Streptococcus mutans. To be noted: for IC50: 50% inhibition in growth, 24 hours, means of triplicate experiments, read-out: ID/50 (the source's name); for ID/50: recalculated as ppm F, 1440 min.
A short description of a further data set: pH of aqueous solution. In kind it is physicochemical. The text has this: An aqueous solution of ZnNH4F3 has a pH of 5.8. The preferred pH of oral compositions containing ZnNH4F3 is from 4.5 to 8.0. A 1000 ppm F^- solution was stable.
The conditions of data set [2]: complexing between the Zn and NH4; cited from earlier work.
For the next data set, the system named is Osborne-Mendel rats. Description: Rat caries study. In kind it is in vivo.
Data set [3] in a line: Availability of F ion by fluoride-selective electrode. It counts as physicochemical. To be noted: Orion fluoride electrode.
Data set [4] can be described thus: Stability of solution on standing (haze / turbidity).
A further data set concerns S.mutans 6715. As to the kind of experiment: Inhibition of bacterial growth (24 h, optical density). To be noted: recalculated as ppm F, 1440 min. It counts as cell-based, Streptococcus mutans.
The next data set concerns L.casei. The description is as above. In kind it is cell-based, Lactobacillus casei. The conditions noted are these: for IC50: 50% inhibition in growth, 24 hours, means of triplicate experiments, read-out: ID/50 (the source's name); for ID/50: recalculated as ppm F, 1440 min.
The next data set has as its system Artificial Plaque. Description: In vitro antiplaque study on saliva-coated aluminium plummets. It counts as cell-based. The conditions noted are these: means ± 95% confidence limits, five replicas.
A short description of data set [5]: Dissolution of hydroxyapatite discs following fluoride treatment (phosphate release).
A further data set relates to S.sanguis 10556. Description: Inhibition of bacterial growth (24 h, optical density). In kind it is cell-based, Streptococcus sanguis. The conditions noted are these: for IC50: 50% inhibition in growth, 24 hours, means of triplicate experiments, read-out: ID/50 (the source's name); for ID/50: recalculated as ppm F, 1440 min.
[6] abbreviates: 1000 ppm F- solution, pH 4.0, vs disc treated with buffer alone, means of triplicate, 30 min.
Where [7] appears, read: 1000 ppm F- solution, pH 5.0, vs disc treated with buffer alone, means of triplicate, 30 min.
The mark [8] stands for this setting: 1000 ppm F- solution, pH 6.0, vs disc treated with buffer alone, means of triplicate, 30 min.
[9] abbreviates: 1000 ppm F- solution, pH 7.0, vs disc treated with buffer alone, means of triplicate, 30 min.

In data set [1], `[F][Zn][F]` [ZnF2] gave a solubility of 1.5%.
Regarding zinc ammonium fluoride [ZnNH4F3], the IC50 in the data set on S.salivarius SS4 was found to be 1.88 mM; in the data set with S.salivarius H-257, 0.34 mM; with S.sanguis 10557, 0.25 mM; in the data set with S.mutans OMZ-176, 3.05 mM; with L.casei, 4.7 mM; in the data set with S.sanguis 10556, 0.21 mM. Besides, the ID/50 in the data set with S.salivarius SS4 was 104 ppm F; in the data set with S.salivarius H-257, 19 ppm F; in the data set with S.sanguis 10557 it was 14 ppm F; in the data set on S.mutans OMZ-176 it was 174 ppm F; in the data set with S.mutans 6715 it was 92 ppm F; in the data set on L.casei it was 268 ppm F. Also, the ID/50 with S.sanguis 10556 was 12 ppm F. In addition, the “pH of aqueous solution” value in “pH of aqueous solution” is 5.8. In addition, the “log K” value in data set [2] is 2.18-2.59. Also, the “% Reduction” value in the data set on Osborne-Mendel rats (rat, in vivo) stood at 30.9%. In addition, the “Caries/ Rat” value in the data set on Osborne-Mendel rats (rat, in vivo) is reported as 3.63. In addition, the “availability of F ion” value in data set [3] (solution at 1000 ppm F level) and in [3] (solution at 2500 ppm F level) was 100% in each case. In data set [4] (1000 ppm F- solution, not hazy on standing after several weeks), the stability of solution entry is on record as “stable”. For the same compound, the “Percentage Inhibition of Growth of Artificial Plaque” value in the data set with Artificial Plaque (Zinc Conc. 6.0 mM/L) worked out at 45 ± 14; in the data set with Artificial Plaque (Zinc Conc. 15.0 mM/L) it was 48 ± 14; in the data set on Artificial Plaque (Zinc Conc. 30.0 mM/L), 60 ± 14. The “% Reduction in Dissolution” value in data set [5] (hydroxyapatite discs, pH 4, 30 min) is 52%; in data set [5] (hydroxyapatite discs, pH 5, 30 min) it was 49%; in data set [5] (hydroxyapatite discs, pH 6, 30 min), 43%; in data set [5] (hydroxyapatite discs, pH 7, 30 min) it was 40%.
For the compound `O=S(=O)([O-])[O-].[Zn+2]` [ZnSO4], the IC50 in the data set on S.salivarius SS4 turned out to be 6 mM; in the data set with S.salivarius H-257, 0.75 mM; with S.sanguis 10557 it was 0.4 mM; in the data set on S.mutans OMZ-176, 7.5 mM; in the data set on L.casei, 10.4 mM; in the data set on S.sanguis 10556, 0.36 mM. The “Percentage Inhibition of Growth of Artificial Plaque” value is recorded as 47 ± 14 in the data set with Artificial Plaque (Zinc Conc. 6.0 mM/L), 51 ± 14 in the data set on Artificial Plaque (Zinc Conc. 15.0 mM/L) and 64 ± 14 in the data set on Artificial Plaque (Zinc Conc. 30.0 mM/L).
As for `[F-].[Na+]` [NaF], the IC50 with S.salivarius SS4 was 13.4 mM; in the data set with S.salivarius H-257, 3.77 mM; with S.sanguis 10557, 1.82 mM; in the data set on S.mutans OMZ-176, 16.3 mM; in the data set on L.casei it was above 12 mM; in the data set on S.sanguis 10556, 1.18 mM. The ID/50 is recorded as 255 ppm F in the data set on S.salivarius SS4; 72 ppm F with S.salivarius H-257; 35 ppm F in the data set on S.sanguis 10557; 309 ppm F with S.mutans OMZ-176; 138 ppm F in the data set with S.mutans 6715; 352 ppm F in the data set with L.casei. The ID/50 with S.sanguis 10556 is 22 ppm F. The “Caries/ Rat” value in the data set with Osborne-Mendel rats (1000 ppm F-, topical to molar teeth, 21 days, cariogenic diet, only severe lesions (B & C) scored, water control 5.25) is 3.69. Further, the “% Reduction” value with Osborne-Mendel rats (reduction in caries based on the water control, 1000 ppm F-, topical, 21 days) is recorded as 29.7%. Also, the “% Reduction in Dissolution” value in data set [5] (setting [6]) came to 44%; in [5] (setting [7]), 36%; in data set [5] (setting [8]), 31%; in data set [5] (setting [9]), 31%.
With `[F][Sn][F]` [SnF2], the stability of solution result in [4] (after 24 hours at room temperature) was “developed turbidity”. Besides, the “% Reduction in Dissolution” value amounted to 57% in data set [5] (setting [6]), 54% in data set [5] (setting [7]), 45% in [5] (setting [8]) and 43% in data set [5] (setting [9]).
Turning to `Cl.N.[Cl-].[Cl-].[Zn+2]` [ZnNH4Cl3], the IC50 in the data set on S.salivarius SS4 was 6.5 mM; in the data set on L.casei, 10 mM; in the data set on S.sanguis 10556 it was 0.46 mM.
